In the supplement of paper PMC11451515:

Columns and labels:
Settings in all cases: 48 h
NOMO1 [1] = assay: cell viability relative to DMSO control; higher = less cytotoxic
Summary of the method: (§1)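 In 1536-well plates, 5 μl of leukemia cells were seeded per well: 500 cells/well for NOMO1 or SEM and 1000 cells/well for P12-Ichikawa. Each line had first been adapted for at least four passages in each medium. Library compounds in DMSO were pin-dosed at 11 threefold concentrations between 47 μM and 0.79 nM, and CellTiter-Glo One luminescence was read after 48 h at 37°C. Viability is a per-plate percentage relative to DMSO wells, with cell-free wells as background.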

SEM cells [2] = assay: as above
Summary of the method: as §1

P12-Ichikawa [3] = assay: as above
Summary of the method: as §1

NOMO1 [4] = assay: AUC of viability dose-response curve (% viability x log10 dose units); higher = less sensitive
Summary of the method: (§2)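 Area under the curve was integrated by trapezoidal rule from a log-logistic fit of normalised viability, with curves exceeding full viability scaled and quality-control failures removed. The fit had four parameters over log10 doses. Viability came from CellTiter-Glo One luminescence, normalised per plate to DMSO and cell-free wells, after leukemia cells adapted to each medium (500 or 1000 cells/well, 1536-well plates) were exposed to library compounds in DMSO for 48 h at 37°C. The 11 threefold doses ran from 47 μM to 0.79 nM.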

SEM cells [5] = assay: as above
Summary of the method: as §2

P12-Ichikawa [6] = assay: as above
Summary of the method: as §2

O=C1\C=C/C=C2/[C@H]3CNC[C@H](C3)CN12
cell viability [%]
Settings | NOMO1 [1] | P12-Ichikawa [3] | SEM cells [2]
HPLM + 10% dialyzed FBS, 0.000781 µM | 112 | 108 | 97.4
HPLM + 10% dialyzed FBS, 0.00234 µM | 125 | 109 | 95.2
HPLM + 10% dialyzed FBS, 0.00702 µM | 120 | 115 | 103
HPLM + 10% dialyzed FBS, 0.0211 µM | 111 | 109 | 108
HPLM + 10% dialyzed FBS, 0.0632 µM | 133 | 122 | 101
HPLM + 10% dialyzed FBS, 0.19 µM | 126 | 122 | 106
HPLM + 10% dialyzed FBS, 0.569 µM | 130 | 125 | 114
HPLM + 10% dialyzed FBS, 1.71 µM | 129 | 123 | 104
HPLM + 10% dialyzed FBS, 5.12 µM | 116 | 116 | 102
HPLM + 10% dialyzed FBS, 15.4 µM | 97.9 | 97.5 | 112
HPLM + 10% dialyzed FBS, 46.1 µM | 27.7 | 58.3 | 103
RPMI 5 mM glucose + 10% FBS, 0.000781 µM | 105 | 116 | 101
RPMI 5 mM glucose + 10% FBS, 0.00234 µM | 107 | 111 | 104
RPMI 5 mM glucose + 10% FBS, 0.00702 µM | 124 | 120 | 102
RPMI 5 mM glucose + 10% FBS, 0.0211 µM | 107 | 129 | 113
RPMI 5 mM glucose + 10% FBS, 0.0632 µM | 110 | 122 | 123
RPMI 5 mM glucose + 10% FBS, 0.19 µM | 120 | 125 | 114
RPMI 5 mM glucose + 10% FBS, 0.569 µM | 112 | 124 | 103
RPMI 5 mM glucose + 10% FBS, 1.71 µM | 123 | 132 | 127
RPMI 5 mM glucose + 10% FBS, 5.12 µM | 111 | 113 | 113
RPMI 5 mM glucose + 10% FBS, 15.4 µM | 100 | 112 | 112
RPMI 5 mM glucose + 10% FBS, 46.1 µM | 46.9 | 54.8 | 61.2
RPMI 5 mM glucose + 10% dialyzed FBS, 0.000781 µM | 96.7 | 111 | 108
RPMI 5 mM glucose + 10% dialyzed FBS, 0.00234 µM | 98.4 | 109 | 76.6
RPMI 5 mM glucose + 10% dialyzed FBS, 0.00702 µM | 107 | 110 | 101
RPMI 5 mM glucose + 10% dialyzed FBS, 0.0211 µM | 109 | 108 | 118
RPMI 5 mM glucose + 10% dialyzed FBS, 0.0632 µM | 119 | 121 | 112
RPMI 5 mM glucose + 10% dialyzed FBS, 0.19 µM | 118 | 120 | 123
RPMI 5 mM glucose + 10% dialyzed FBS, 0.569 µM | 122 | 132 | 120
RPMI 5 mM glucose + 10% dialyzed FBS, 1.71 µM | 112 | 126 | 119
RPMI 5 mM glucose + 10% dialyzed FBS, 5.12 µM | 102 | 118 | 126
RPMI 5 mM glucose + 10% dialyzed FBS, 15.4 µM | 104 | 99.9 | 103
RPMI 5 mM glucose + 10% dialyzed FBS, 46.1 µM | 64.2 | 67.7 | 113

AUC of viability dose-response curve
Settings | NOMO1 [4] | P12-Ichikawa [6] | SEM cells [5]
HPLM + 10% dialyzed FBS | 447 | 457 | 462
RPMI 5 mM glucose + 10% FBS | 458 | 459 | 466
RPMI 5 mM glucose + 10% dialyzed FBS | 464 | 459 | 456
